Several values for one entry are separate records, joined by “and”; a condition that tells them apart may be missing. Identical values can stand only once. Inconclusive results and toxic doses are left out.
Tested on: L1210 leukemia ip in BDF1 mice, survival T/C
Assay: NCI In Vivo Anticancer Drug Screen. Data for tumor model L1210 Leukemia (intraperitoneal) in B6D2F1 (BDF1) mice
Conditions: endpoint: mean survival time, higher = longer survival
How it was run: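 Tumor was transplanted into mice, which were then dosed with test compound or vehicle alone. Survival was recorded for each group, and the treated figure was expressed relative to the control figure.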

[1] = dose: 12.5 mg/kg/injection, schedule: Q01DX009 (ip), vehicle: saline
[2] = dose: 50.0 mg/kg/injection, schedule: Q01DX009 (ip), vehicle: saline
[3] = dose: 100.0 mg/kg/injection, schedule: Q01DX001 (ip), vehicle: saline
[4] = dose: 200.0 mg/kg/injection, schedule: Q01DX001 (ip), vehicle: saline
[5] = dose: 18.0 mg/kg/injection, schedule: Q04DX003 (ip), vehicle: saline

Structure (SMILES): C1OC1CN1CCN(CC2CO2)CC1 (stereo not drawn)
- T/C (dose: 1.2 mg/kg/injection, schedule: Q01DX009 (ip), vehicle: saline): 101 % of control
- T/C (dose: 1.8 mg/kg/injection, schedule: Q01DX009 (ip), vehicle: saline): 117 % of control
- T/C (dose: 2.0 mg/kg/injection, schedule: Q03HX008 (ip), vehicle: saline): 117 % of control
- T/C (dose: 2.0 mg/kg/injection, schedule: Q03HX016 (ip), vehicle: saline): 102 % of control
- T/C (dose: 2.0 mg/kg/injection, schedule: Q03HX024 (ip), vehicle: saline): 121 % of control
- T/C (dose: 3.5 mg/kg/injection, schedule: Q01DX009 (ip), vehicle: saline): 118 % of control
- T/C (dose: 4.0 mg/kg/injection, schedule: Q03HX008 (ip), vehicle: saline): 114 % of control
- T/C (dose: 4.0 mg/kg/injection, schedule: Q03HX016 (ip), vehicle: saline): 114 % of control
- T/C (dose: 6.25 mg/kg/injection, schedule: Q01DX009 (ip), vehicle: saline): 121 % of control
- T/C (dose: 8.0 mg/kg/injection, schedule: Q01DX009 (sc), vehicle: saline): 101 % of control
- T/C (dose: 8.0 mg/kg/injection, schedule: Q03HX008 (ip), vehicle: saline): 114 % of control
- T/C (dose: 8.0 mg/kg/injection, schedule: Q03HX016 (ip), vehicle: saline): 94 % of control
- T/C [1]: 164 % of control
- T/C (dose: 15.0 mg/kg/injection, schedule: Q01DX009 (ip), vehicle: saline): 157 % of control
- T/C (dose: 16.0 mg/kg/injection, schedule: Q01DX001 (sc), vehicle: saline): 106 % of control
- T/C (dose: 16.0 mg/kg/injection, schedule: Q01DX009 (sc), vehicle: saline): 106 % of control
- T/C (dose: 30.0 mg/kg/injection, schedule: Q01DX009 (ip), vehicle: saline): 208 % of control
- T/C (dose: 32.0 mg/kg/injection, schedule: Q01DX001 (oral), vehicle: saline): 113 % of control
- T/C (dose: 32.0 mg/kg/injection, schedule: Q01DX001 (sc), vehicle: saline): 98 % of control
- T/C (dose: 32.0 mg/kg/injection, schedule: Q01DX009 (ip), vehicle: saline): 102 % of control
- T/C (dose: 32.0 mg/kg/injection, schedule: Q01DX009 (oral), vehicle: saline): 153 % of control
- T/C (dose: 32.0 mg/kg/injection, schedule: Q04DX003 (ip), vehicle: saline): 165 % of control
- T/C [2]: 111 % of control
- T/C (dose: 60.0 mg/kg/injection, schedule: Q01DX009 (ip), vehicle: saline): 92 % of control
- T/C (dose: 64.0 mg/kg/injection, schedule: Q01DX001 (oral), vehicle: saline): 123 % of control
- T/C (dose: 64.0 mg/kg/injection, schedule: Q01DX001 (sc), vehicle: saline): 113 % of control
- T/C (dose: 64.0 mg/kg/injection, schedule: Q01DX009 (oral), vehicle: saline): 165 % of control
- T/C (dose: 64.0 mg/kg/injection, schedule: Q01DX009 (sc), vehicle: saline): 160 % of control
- T/C [3]: 176 % of control
- T/C (dose: 120.0 mg/kg/injection, schedule: Q01DX001 (ip), vehicle: saline): 182 % of control
- T/C (dose: 128.0 mg/kg/injection, schedule: Q01DX001 (sc), vehicle: saline): 116 % of control
- T/C (dose: 180.0 mg/kg/injection, schedule: Q01DX001 (ip), vehicle: saline): 168 % of control
- T/C [4]: 90 % of control
- T/C (dose: 256.0 mg/kg/injection, schedule: Q01DX001 (sc), vehicle: saline): 151 % of control

Structure (SMILES): CN(C)CCCN1c2ccccc2Sc2ccccc21
- T/C (dose: 4.6 mg/kg/injection, schedule: Q01DX009 (ip), vehicle: saline): 98 % of control
- T/C (dose: 9.3 mg/kg/injection, schedule: Q01DX009 (ip), vehicle: saline): 105 % of control
- T/C (dose: 9.37 mg/kg/injection, schedule: Q01DX009 (ip), vehicle: saline): 96 % of control
- T/C (dose: 18.0 mg/kg/injection, schedule: Q01DX001 (ip), vehicle: saline): 107 % of control
- T/C (dose: 18.0 mg/kg/injection, schedule: Q01DX009 (ip), vehicle: saline): 112 % of control
- T/C [5]: 116 % of control
- T/C (dose: 18.75 mg/kg/injection, schedule: Q01DX009 (ip), vehicle: saline): 104 % of control and 108 % of control
- T/C (dose: 18.75 mg/kg/injection, schedule: Q04DX003 (ip), vehicle: saline): 115 % of control
- T/C (dose: 37.0 mg/kg/injection, schedule: Q01DX001 (ip), vehicle: saline): 110 % of control
- T/C (dose: 37.0 mg/kg/injection, schedule: Q01DX009 (ip), vehicle: saline): 112 % of control
- T/C (dose: 37.0 mg/kg/injection, schedule: Q04DX003 (ip), vehicle: saline): 115 % of control
- T/C (dose: 37.5 mg/kg/injection, schedule: Q01DX009 (ip), vehicle: saline): 98 % of control and 122 % of control
- T/C (dose: 37.5 mg/kg/injection, schedule: Q04DX003 (ip), vehicle: saline): 102 % of control
- T/C (dose: 75.0 mg/kg/injection, schedule: Q01DX001 (ip), vehicle: saline): 105 % of control
- T/C (dose: 75.0 mg/kg/injection, schedule: Q01DX009 (ip), vehicle: saline): 122 % of control
- T/C (dose: 75.0 mg/kg/injection, schedule: Q04DX003 (ip), vehicle: saline): 102 % of control and 116 % of control

Structure (SMILES): Cc1c(C)n(C2OC(CO)C(O)C2O)c(=O)[nH]c1=O (stereo not drawn)
- T/C [3]: 96 % of control
- T/C [4]: 108 % of control
- T/C (dose: 400.0 mg/kg/injection, schedule: Q01DX001 (ip), vehicle: saline): 93 % of control

Structure (SMILES): FC(F)(F)c1ccc2c(c1)N(CCCN1CCN(CCOc3ccccc3)CC1)c1ccccc1S2
- T/C (dose: 6.25 mg/kg/injection, schedule: Q04DX003 (ip), vehicle: saline): 105 % of control
- T/C (dose: 8.2 mg/kg/injection, schedule: Q04DX003 (ip), vehicle: saline): 97 % of control and 98 % of control
- T/C (dose: 12.5 mg/kg/injection, schedule: Q04DX003 (ip), vehicle: saline): 104 % of control
- T/C [5]: 101 % of control and 102 % of control

Structure (SMILES): CCC1(CC)N=C2OCCN2C1=O
- T/C (dose: 12.5 mg/kg/injection, schedule: Q04DX003 (ip), vehicle: saline with Tween-80): 97 % of control
- T/C (dose: 25.0 mg/kg/injection, schedule: Q04DX003 (ip), vehicle: saline with Tween-80): 95 % of control
- T/C (dose: 50.0 mg/kg/injection, schedule: Q04DX003 (ip), vehicle: saline with Tween-80): 97 % of control
- T/C (dose: 100.0 mg/kg/injection, schedule: Q04DX003 (ip), vehicle: saline with Tween-80): 94 % of control
- T/C (dose: 200.0 mg/kg/injection, schedule: Q04DX003 (ip), vehicle: saline with Tween-80): 91 % of control and 92 % of control
- T/C (dose: 300.0 mg/kg/injection, schedule: Q04DX003 (ip), vehicle: saline with Tween-80): 106 % of control

Structure (SMILES): N#CCCN(Cc1ccccc1)C(=S)Nc1ccc(C(F)(F)F)cc1
- T/C (dose: 100.0 mg/kg/injection, schedule: Q04DX002 (ip), vehicle: Klucel (hydroxypropylcellulose) (HPC)): 100 % of control
- T/C (dose: 200.0 mg/kg/injection, schedule: Q04DX002 (ip), vehicle: Klucel (hydroxypropylcellulose) (HPC)): 100 % of control
- T/C (dose: 400.0 mg/kg/injection, schedule: Q04DX002 (ip), vehicle: Klucel (hydroxypropylcellulose) (HPC)): 100 % of control

Structure (SMILES): Cn1c(=O)oc2ccccc2c1=O
- T/C (dose: 100.0 mg/kg/injection, schedule: Q04DX003 (ip), vehicle: saline): 98 % of control
- T/C (dose: 200.0 mg/kg/injection, schedule: Q04DX003 (ip), vehicle: saline): 97 % of control
- T/C (dose: 400.0 mg/kg/injection, schedule: Q04DX003 (ip), vehicle: saline): 109 % of control

Structure (SMILES): CCOC(=O)NP(=O)(N1CC1(C)C)N1CC1(C)C (stereo not drawn)
- T/C (dose: 62.5 mg/kg/injection, schedule: Q01DX010 (ip), vehicle: saline): 115 % of control and 120 % of control
- T/C (dose: 125.0 mg/kg/injection, schedule: Q01DX010 (ip), vehicle: saline): 117 % of control
- T/C (dose: 250.0 mg/kg/injection, schedule: Q01DX010 (ip), vehicle: saline): 151 % of control and 157 % of control

Structure (SMILES): O=C(CCCN1CCN(c2ccccc2)CC1)c1ccc(F)cc1
- T/C [1]: 122 % of control
- T/C (dose: 25.0 mg/kg/injection, schedule: Q01DX009 (ip), vehicle: saline): 106 % of control
- T/C [2]: 114 % of control
- T/C (dose: 100.0 mg/kg/injection, schedule: Q01DX009 (ip), vehicle: saline): 111 % of control
- T/C (dose: 200.0 mg/kg/injection, schedule: Q01DX009 (ip), vehicle: saline): 103 % of control

Structure (SMILES): CCOC(=O)C(=O)C(=O)OCC
- T/C (dose: 100.0 mg/kg/injection, schedule: Q04DX002 (ip), vehicle: saline with Tween-80): 101 % of control
- T/C (dose: 200.0 mg/kg/injection, schedule: Q04DX002 (ip), vehicle: saline with Tween-80): 107 % of control
- T/C (dose: 400.0 mg/kg/injection, schedule: Q04DX002 (ip), vehicle: saline with Tween-80): 88 % of control

Structure (SMILES): O=C1OC(Cc2ccccc2)(c2ccccc2)c2ccccc21 (stereo not drawn)
- T/C (dose: 50.0 mg/kg/injection, schedule: Q01DX009 (ip), vehicle: saline with Tween-80): 90 % of control
- T/C (dose: 100.0 mg/kg/injection, schedule: Q01DX009 (ip), vehicle: saline with Tween-80): 88 % of control
- T/C (dose: 200.0 mg/kg/injection, schedule: Q01DX009 (ip), vehicle: saline with Tween-80): 89 % of control
